DBAASP
In brackets after ≈: the same amount, converted by molar mass.

Experiments:
Test in all cases: ≥ marks a high value that may be exact or a test limit, other limits are often not marked, values filed in µg/mL are converted to µM
[1] = test system: Pseudomonas aeruginosa
[2] = test system: Escherichia coli
[3] = test system: Staphylococcus epidermidis
[4] = test system: Bacillus subtilis
[5] = test system: Streptococcus pyogenes
[6] = test system: Proteus vulgaris
[7] = test system: Salmonella typhimurium
[8] = test system: Staphylococcus epidermidis KCTC 1917
[9] = test system: Pseudomonas aeruginosa KCTC 1637
[10] = test system: Salmonella typhimurium KCTC 1926
[11] = test system: Pseudomonas aeruginosa CCARM 2109
[12] = test system: Pseudomonas aeruginosa CCARM 2095
[13] = test system: Escherichia coli KCTC 1682
[14] = test system: Staphylococcus aureus CCARM 3543
[15] = test system: Bacillus subtilis KCTC 3068
[16] = test system: Staphylococcus aureus KCTC 1621
[17] = test system: Staphylococcus aureus CCARM 3001
[18] = test system: Candida albicans ATCC 64550
[19] = test system: Staphylococcus epidermidis ATCC 12228
[20] = test system: Staphylococcus aureus ATCC 6538
[21] = test system: Micrococcus luteus ATCC 4698
[22] = test system: Escherichia coli DH5alpha

Row | MIC [1] | MIC [2] | MIC [3] | MIC [4] | MIC [5] | MIC [6] | MIC [7] | MIC [8] | MIC [9] | MIC [10] | MIC [11] | MIC [12] | MIC [13] | MIC [14] | MIC [15] | MIC [16] | MIC [17] | MIC [19] | MIC [20] | MIC [21] | Structure (SMILES) | further results
1 | 4 µM (≈ 12.1 µg/mL) | 1 µM (≈ 3.01 µg/mL) | ≥ 64 µM | ≥ 32 µM | ≥ 64 µM | 2 µM (≈ 6.03 µg/mL) | 0.5 µM (≈ 1.51 µg/mL) |  |  |  |  |  |  |  |  |  |  |  |  |  | CC(C)C[C@H](NC(=O)[C@H](CCCN=C(N)N)NC(=O)[C@@H]1CCCN1C(=O)[C@H](Cc1cnc[nH]1)NC(=O)[C@@H]1CCCN1C(=O)[C@@H]1CCCN1C(=O)[C@H](CCCN=C(N)N)NC(=O)[C@@H]1CCCN1C(=O)[C@@H]1CCCN1C(=O)[C@H](Cc1cnc[nH]1)NC(=O)[C@@H]1CCCN1C(=O)[C@@H]1CCCN1C(=O)[C@H](CCCN=C(N)N)NC(=O)[C@@H]1CCCN1C(=O)[C@@H]1CCCN1C(=O)[C@H](Cc1cnc[nH]1)NC(=O)[C@@H]1CCCN1C(=O)[C@@H]1CCCN1C(=O)[C@H](CCCN=C(N)N)NC(=O)[C@@H]1CCCN1C(=O)[C@@H]1CCCN1C(=O)[C@H](Cc1cnc[nH]1)NC(=O)[C@@H]1CCCN1C(=O)[C@@H]1CCCN1C(=O)[C@H](CCCN=C(N)N)NC(=O)[C@@H]1CCCN1)C(=O)O [PRPPHPPRPPHPPRPPHPPRPPHPRL] | 
2 |  |  |  |  |  |  |  | 2 µM (≈ 3.56 µg/mL) | 8 µM (≈ 14.3 µg/mL) | 4 µM (≈ 7.13 µg/mL) | 16 µM (≈ 28.5 µg/mL) | 16 µM (≈ 28.5 µg/mL) | 8 µM (≈ 14.3 µg/mL) | 2 µM (≈ 3.56 µg/mL) | 4 µM (≈ 7.13 µg/mL) | 4 µM (≈ 7.13 µg/mL) | 8 µM (≈ 14.3 µg/mL) |  |  |  | CC(C)C[C@H](NC(=O)[C@@H](N)CCCN=C(N)N)C(=O)N[C@@H](Cc1c[nH]c2ccccc12)C(=O)N[C@@H](CCCN=C(N)N)C(=O)N[C@@H](CCCN=C(N)N)C(=O)N[C@@H](Cc1c[nH]c2ccccc12)C(=O)N[C@@H](CCCN=C(N)N)C(=O)N[C@@H](CCCN=C(N)N)C(=O)N[C@@H](Cc1c[nH]c2ccccc12)C(=O)N[C@@H](CCCN=C(N)N)C(=O)N[C@@H](CCCN=C(N)N)C(N)=O [RLWRRWRRWRR] | 
3 | 64 µM (≈ 70.2 µg/mL) | 64 µM (≈ 70.2 µg/mL) | ≥ 64 µM | ≥ 64 µM | ≥ 64 µM | ≥ 64 µM | ≥ 32 µM |  |  |  |  |  |  |  |  |  |  |  |  |  | CC(C)C[C@H](NC(=O)[C@H](CCCN=C(N)N)NC(=O)[C@@H]1CCCN1C(=O)[C@H](Cc1cnc[nH]1)NC(=O)[C@@H]1CCCN1C(=O)[C@@H]1CCCN1C(=O)[C@H](CCCN=C(N)N)NC(=O)[C@@H]1CCCN1C(=O)[C@@H](N)CCC(N)=O)C(=O)O [QPRPPHPRL] | 

Second part, the compound before the results:

Row | Structure (SMILES) | MIC [1] | MIC [2] | MIC [3] | MIC [4] | MIC [5] | MIC [6] | MIC [7] | MIC [8] | MIC [9] | MIC [10] | MIC [11] | MIC [12] | MIC [13] | MIC [14] | MIC [15] | MIC [16] | MIC [17] | MIC [19] | MIC [20] | MIC [21] | further results
4 | CC(C)C[C@H](NC(=O)[C@H](Cc1c[nH]c2ccccc12)NC(=O)[C@H](CCCCN)NC(=O)[C@H](CCCCN)NC(=O)[C@H](Cc1c[nH]c2ccccc12)NC(=O)[C@H](CC(C)C)NC(=O)[C@H](CCCCN)NC(=O)[C@H](Cc1c[nH]c2ccccc12)NC(=O)[C@H](CC(C)C)NC(=O)[C@@H](N)CCCCN)C(=O)N[C@@H](CCCCN)C(N)=O [KLWKLWKKWLK] |  |  |  |  |  |  |  | 2 µM (≈ 3.11 µg/mL) | 2 µM (≈ 3.11 µg/mL) | 1 µM (≈ 1.56 µg/mL) | 8 µM (≈ 12.4 µg/mL) | 4 µM (≈ 6.22 µg/mL) | 2 µM (≈ 3.11 µg/mL) | 4 µM (≈ 6.22 µg/mL) | 4 µM (≈ 6.22 µg/mL) | 2 µM (≈ 3.11 µg/mL) | 4 µM (≈ 6.22 µg/mL) |  |  |  | MIC [18]: ≥ 100 µM
5 | CC(C)C[C@H](NC(=O)[C@H](CC(C)C)NC(=O)[C@H](CCCCN)NC(=O)[C@H](CO)NC(=O)[C@H](CC(C)C)NC(=O)[C@@H](NC(=O)[C@H](CCCCN)NC(=O)[C@H](Cc1ccccc1)NC(=O)[C@H](CC(C)C)NC(=O)[C@@H](NC(=O)CNC(=O)[C@H](CC(C)C)NC(=O)[C@@H](N)Cc1ccccc1)C(C)C)C(C)C)C(=O)O [FLGVLFKVLSKLL] |  |  |  |  |  |  |  |  |  |  |  |  |  |  |  |  |  | 5.42 µM (≈ 8 µg/mL) | 2.03 µM (≈ 3 µg/mL) | 1.35 µM (≈ 2 µg/mL) | MIC [22]: ≥ 271 µM
6 | CC(C)C[C@H](NC(=O)[C@H](CC(C)C)NC(=O)[C@H](CCCCN)NC(=O)[C@H](CO)NC(=O)[C@H](CC(C)C)NC(=O)[C@H](C)NC(=O)[C@H](CCCCN)NC(=O)[C@@H](NC(=O)[C@@H](NC(=O)[C@H](C)NC(=O)CNC(=O)[C@H](CC(C)C)NC(=O)[C@@H](N)Cc1ccccc1)C(C)C)C(C)C)C(=O)O [FLGAVVKALSKLL] |  |  |  |  |  |  |  |  |  |  |  |  |  |  |  |  |  | 29.4 µM (≈ 40 µg/mL) | 19.1 µM (≈ 26 µg/mL) | 10.3 µM (≈ 14 µg/mL) | MIC [22]: ≥ 36.8 µM
